The text below walks through data of EP1086695B1, “Antiviral compositions comprising yohimbine as active principle” (Leone, Enzo, priority 1999, dated 2001).

Counter-ions that a name gives are not always drawn.

Data set [1] deals with herpetic keratoconjunctivitis. Put plainly: Example 2: clinical treatment of herpetic keratitis. In kind it is in vivo, subjects. The text has this:
These re-occurrences of acute episodes were, however, mastered with three-week cycles of treatment using the drug in question, with three-week rest intervals between one cycle and another.

For data set [2], the system named is herpes progenitalis. Put plainly: Example 4: treatment of herpes progenitalis in a serious form (single case). Type of data set: in vivo, person. The method, then: The patient took 5 mg/day of yohimbine HCI for more than one year with three-week rest intervals every three months, using a galenical preparation consisting of: […]
Data set [3] has as its system influenza. Briefly: Example 3: clinical treatment of influenza syndromes. To be noted: 5 mg/day, 7-10 day treatment; including elderly patients and children. Type of data set: in vivo.
Data set [4] deals with herpes virus 1 or 2. Put plainly: Example 1: clinical treatment of herpes. Type of data set: in vivo. To be noted: 5 mg/day; 30 patients. The method, then: In the course of 7 years, 30 patients suffering from herpes virus 1 or 2 were treated, the said patients still being currently under supervision.
The treatment involved the use of 5 mg/day of yohimbine HCI until resolution of the dermatological affections.

Data set [5] has as its system HSV-1. To be noted: against HSV-1 in their screening system; cited from earlier work.
The nature of data set [6]: Doses effective as antiviral agent (general finding). In kind it is in vivo. The conditions noted are these: expressed as free base. The method, then: The preferred dosage is 5 mg/day from the onset of the first signs of the viral infection up to its cure. In the case of long courses of treatment, it is preferable to follow a scheme of two- or three-month cycles with intervals of rest of 10-15 days. Higher doses than the range indicated may result in a failure of the curative effect, this being due to the peculiarity of yohimbine, observed on various organs and apparatus, namely of stimulating an action (for example, splenocontraction) at a certain dose level, and the opposite action (splenodilation) at higher dose levels. Doses below the limit indicated may be therapeutically ineffective.

On to `Nc1nc2c(ncn2COCCO)c(=O)[nH]1` [acyclovir], for which the “benefit in terms of recidivation” value in data set [1] (earlier classic treatment of the same 10 subjects) is listed as “without any benefit”. For the same molecule, the “outcome of earlier treatment” value in data set [2] (earlier treatment with specific drugs) was “unsuccessfully”.

Regarding `COC(=O)[C@@H]1[C@H]2C[C@H]3c4[nH]c5ccccc5c4CCN3C[C@@H]2CC[C@@H]1O` [yohimbine HCI, yohimbine hydrochloride], the outcome of influenza in data set [3] was “complete resolution”. In addition, the relapse result in data set [1] (5 mg/day, 10 subjects) was “the cases of relapse were less frequent and of shorter duration”; in data set [4] it was “considerable reduction in the number of cases of relapse”. Moreover, the pain entry in data set [1] (5 mg/day, in periods when the affection became more acute) was “the pain involved became more tolerable”. In data set [1] (treatment lasting several years, three-week cycles), the tolerability of treatment result is listed as “without any problems of any sort arising”. Also, the side effect entry in data set [2] (5 mg/day for more than one year) is recorded as “did not reveal any side effect”. In data set [2] (5 mg/day tablet, three-week rest intervals every three months), the “lesions and vesicular eruptions” value is “within approximately six months led to the disappearance of the lesions and of the vesicular eruptions”. In addition, the recurrence result in data set [2] (follow-up after treatment) was “Only one other slight episode of recurrence occurred five years later”. Besides, the antiherpes activity entry in data set [5] is “inactive”.

As to `COC(=O)[C@@H]1[C@H]2C[C@H]3c4[nH]c5ccccc5c4CCN3C[C@@H]2CC[C@@H]1O` [yohimbine, methyl 17-alpha-hydroxy-20-alpha-yohimban-16-beta-carboxylate], in data set [6], the “doses at which yohimbine is effective as antiviral agent” value is 3 to 10 mg/day.
